Laboratory results: patent publication US20210401710A1, “AZOXYSTROBIN EFFICACY IN PERSONAL CARE FORMS” (The Procter & Gamble Company, priority 2020, published 2021)

System: Malassezia furfur (CBS 7982)
Experiment: In Vitro Antifungal Minimum Inhibitory Concentration (MIC) Testing
Format: cell-based
Details: azoxystrobin itself against Malassezia, value used in the model
Experimental: Malassezia furfur (CBS 7982) is maintained continuously as a culture at 31° C. in a 250-ml vent-capped polycarbonate Erlenmeyer flask by combining approximately 50 ml of mDixon growth medium and 2.5 ml of previously grown Malassezia culture. For each assay, Malassezia cells from 24-hour-old culture (approximately 7.5×10^8 cells/ml) are diluted 500-fold into mDixon growth medium. Micropipettes are used to transfer 295 ul of diluted cells to each well of a Beckman 267007 polypropylene round-bottom deep-well plate. Product forms are prepared for testing as concentrated stocks in water. Micropipettes are used to transfer 5 ul of appropriately diluted product form to the diluted Malassezia cells in the round-bottom deep-well plate. A semipermeable sealing film is applied to the plate which is then covered with water-soaked cotton batting. The deep-well plates are shaken at 31° C. on a Heidolph Titramax 1000 shaker at 1350 rpm for approximately 20 hours. The samples are mixed by micropipetting before transferring 200 ul of sample culture from each well to a Corning 3596 polystyrene plate. The plates are read immediately for absorbance at 600 nm using a Molecular Devices SpectraMax M5 plate reader. MIC values are presented as ppm of active.

CO/C=C(/C(=O)OC)c1ccccc1Oc1cc(Oc2ccccc2C#N)ncn1 [Azoxystrobin]
minimal inhibitory concentration (MIC): 0.2-0.9 ppm
